Assay [1] concerns Staphylococcus aureus. Description: Antibacterial activity against methicillin-resistant Staphylococcus aureus after overnight incubation by micro broth dilution analysis. The class given is functional.
In assay [2] the test system is Staphylococcus epidermidis. Kind of assay: Antibacterial activity against methicillin-resistant Staphylococcus epidermidis after overnight incubation by micro broth dilution analysis. Format: functional.
Assay [3] has as its system Staphylococcus haemolyticus. Kind of assay: Antibacterial activity against methicillin-resistant Staphylococcus haemolyticus after overnight incubation by micro broth dilution analysis. Format: functional.
For assay [4], the system named is Staphylococcus aureus. Kind of assay: Antibacterial activity against methicillin-resistant Staphylococcus aureus assessed as zone of inhibition at 50 ug/mL after 24 hrs by agar disc diffusion method. The class given is functional. The note with it: read-out: IZ.
The test system of assay [5] is Staphylococcus aureus. Kind of assay: Antibacterial activity against methicillin-resistant Staphylococcus aureus assessed as zone of inhibition at 200 ng/mL after 24 hrs by agar disc diffusion method. Format: functional. The note with it: read-out: IZ.
The subject of assay [6] is Staphylococcus aureus. Kind of assay: Antibacterial activity against methicillin-resistant Staphylococcus aureus assessed as zone of inhibition at 400 ng/mL after 24 hrs by agar disc diffusion method. Format: functional. To be noted: read-out: IZ.
In assay [7] the test system is Staphylococcus aureus. Description: Antibacterial activity against methicillin-resistant Staphylococcus aureus assessed as zone of inhibition at 800 ng/mL after 24 hrs by agar disc diffusion method. Format: functional. To be noted: read-out: IZ.
In assay [8] the test system is Staphylococcus epidermidis. Description: Antibacterial activity against methicillin-resistant Staphylococcus epidermidis assessed as zone of inhibition at 20 ug/mL after 24 hrs by agar disc diffusion method. The note with it: read-out: IZ. The class given is functional.
In assay [9] the test system is Staphylococcus epidermidis. Kind of assay: Antibacterial activity against methicillin-resistant Staphylococcus epidermidis assessed as zone of inhibition at 200 ng/mL after 24 hrs by agar disc diffusion method. Format: functional. To be noted: read-out: IZ.
For assay [10], the system named is Staphylococcus epidermidis. Description: Antibacterial activity against methicillin-resistant Staphylococcus epidermidis assessed as zone of inhibition at 400 ng/mL after 24 hrs by agar disc diffusion method. The note with it: read-out: IZ. Format: functional.
In assay [11] the test system is Staphylococcus epidermidis. Description: Antibacterial activity against methicillin-resistant Staphylococcus epidermidis assessed as zone of inhibition at 800 ng/mL after 24 hrs by agar disc diffusion method. Format: functional. The note with it: read-out: IZ.
Assay [12] deals with Staphylococcus haemolyticus. Kind of assay: Antibacterial activity against methicillin-resistant Staphylococcus haemolyticus assessed as zone of inhibition at 50 ug/mL after 24 hrs by agar disc diffusion method. The note with it: read-out: IZ. The class given is functional.
Assay [13] has as its system Staphylococcus aureus. Kind of assay: Induction of cellular content release in methicillin-resistant Staphylococcus aureus assessed as DNA content by measuring optical density at 260 nm at MIC after 240 mins by UV-visible spectrophotometric analysis. The class given is functional.
The test system of assay [14] is Staphylococcus aureus. Kind of assay: Antibiofilm activity against methicillin-resistant Staphylococcus aureus at 2 times MIC after 24 hrs by crystal violet staining-based UV-visible spectrophotometric analysis. The class given is functional, organism-based.
The test system of assay [15] is Staphylococcus aureus. Description: Antibiofilm activity against methicillin-resistant Staphylococcus aureus planktonic biofilm assessed as optical density at 492 nm at MIC after 24 hrs by crystal violet staining-based UV-visible spectrophotometric analysis. Format: functional.
For assay [16], the system named is Staphylococcus aureus. Kind of assay: Antibiofilm activity against methicillin-resistant Staphylococcus aureus at MIC after 24 hrs by crystal violet staining-based UV-visible spectrophotometric analysis. Format: functional, organism-based.
For assay [17], the system named is Staphylococcus haemolyticus. Description: Antibacterial activity against methicillin-resistant Staphylococcus haemolyticus assessed as zone of inhibition at 200 ng/mL after 24 hrs by agar disc diffusion method. Format: functional. To be noted: read-out: IZ.
The subject of assay [18] is Staphylococcus haemolyticus. Description: Antibacterial activity against methicillin-resistant Staphylococcus haemolyticus assessed as zone of inhibition at 400 ng/mL after 24 hrs by agar disc diffusion method. The class given is functional. To be noted: read-out: IZ.
The subject of assay [19] is Staphylococcus haemolyticus. Kind of assay: Antibacterial activity against methicillin-resistant Staphylococcus haemolyticus assessed as zone of inhibition at 800 ng/mL after 24 hrs by agar disc diffusion method. Format: functional. To be noted: read-out: IZ.

In brackets after ≈: the same amount, converted by molar mass. Activity calls are given as the source filed them. No cut-off for these calls is given here.

Take `O=[N+]([O-])c1cccc(/C=C/S(=O)(=O)F)c1`: the MIC99 in the assay on Staphylococcus aureus [1] came out at 0.843 µg/mL (≈ 3.65 µM); in assay [2], 0.831 µg/mL (≈ 3.59 µM); in [3], 61.6 µg/mL (≈ 266 µM). Besides, the results for the zone of inhibition at 50 µg/mL (in the assay on Staphylococcus aureus [4]; in assay [12]) were 9.1 mm and 6.4 mm, respectively. The zone of inhibition at 0.2 µg/mL (in the assay with Staphylococcus aureus [5]; in assay [9]) was 5.2 mm in each case. The zone of inhibition at 0.4 µg/mL amounted to 6.1 mm in the assay on Staphylococcus aureus [6] and 6.2 mm in [10]. Moreover, the zone of inhibition at 0.8 µg/mL was found to be 9.7 mm with Staphylococcus aureus [7] and 7.2 mm in assay [11]. In addition, the zone of inhibition at 20 µg/mL in [8] stood at 7.4 mm. For the same molecule, the OD in the assay with Staphylococcus aureus [13] amounted to 1.45. Moreover, the result with Staphylococcus aureus [14] was Active.

For the molecule GENTAMICIN, in the assay on Staphylococcus aureus [14], the outcome was Active. In addition, in the assay with Staphylococcus aureus [15], the OD came out at 0.808.

`CS(=O)(=O)c1ccc(/C=C/S(=O)(=O)F)cc1`: the results for the MIC99 (against Staphylococcus aureus [1]; in assay [2]; in assay [3]) were 15.1 µg/mL (≈ 56.9 µM), 50 µg/mL (≈ 189 µM) and 43.2 µg/mL (≈ 163 µM), respectively. For the same molecule, the zone of inhibition at 50 µg/mL in the assay with Staphylococcus aureus [4] was 10.3 mm. Moreover, the zone of inhibition at 0.2 µg/mL in the assay on Staphylococcus aureus [5] worked out at 4.1 mm. In the assay with Staphylococcus aureus [6], the zone of inhibition at 0.4 µg/mL was determined as 5.2 mm. For the same molecule, in the assay on Staphylococcus aureus [7], the zone of inhibition at 0.8 µg/mL was 7.1 mm. Besides, the zone of inhibition at 20 µg/mL in [8] came to 4.2 mm. Moreover, the OD with Staphylococcus aureus [13] turned out to be 1.45; in the assay on Staphylococcus aureus [15], 0.718. Moreover, the result with Staphylococcus aureus [16] was Active.

Regarding `O=S(=O)(F)/C=C/c1cccc2ccccc12`, the values for the MIC99 (in the assay with Staphylococcus aureus [1]; in assay [2]; in assay [3]) were 0.82 µg/mL (≈ 3.47 µM), 47 µg/mL (≈ 199 µM) and 51 µg/mL (≈ 216 µM), respectively. The results for the zone of inhibition at 50 µg/mL (in the assay on Staphylococcus aureus [4]; in assay [12]) were 9.2 mm and 4.1 mm, respectively. Besides, the zone of inhibition at 0.2 µg/mL in the assay with Staphylococcus aureus [5] was 4.2 mm. Besides, the zone of inhibition at 0.4 µg/mL with Staphylococcus aureus [6] came out at 6.2 mm. Besides, the zone of inhibition at 0.8 µg/mL in the assay on Staphylococcus aureus [7] stood at 9.2 mm. Also, the zone of inhibition at 20 µg/mL in assay [8] was 5.5 mm. For the same molecule, the OD in the assay on Staphylococcus aureus [13] was 1.48. For the same molecule, the outcome in the assay with Staphylococcus aureus [14] was Active.

Regarding `COc1cccc(/C=C/S(=O)(=O)F)c1`, the results for the MIC99 (against Staphylococcus aureus [1]; in assay [2]; in assay [3]) were 0.842 µg/mL (≈ 3.89 µM), 55.2 µg/mL (≈ 255 µM) and 63.2 µg/mL (≈ 292 µM), respectively. The zone of inhibition at 50 µg/mL with Staphylococcus aureus [4] was determined as 9.1 mm; in [12] it was 6.3 mm. For the same molecule, the zone of inhibition at 0.2 µg/mL with Staphylococcus aureus [5] turned out to be 4.1 mm. For the same molecule, the zone of inhibition at 0.4 µg/mL in the assay with Staphylococcus aureus [6] was 5.2 mm. Besides, the zone of inhibition at 0.8 µg/mL in the assay on Staphylococcus aureus [7] was 9.1 mm. The zone of inhibition at 20 µg/mL in [8] turned out to be 4.3 mm. Also, the OD in the assay with Staphylococcus aureus [13] worked out at 1.56. Besides, the outcome with Staphylococcus aureus [14] was Active.

Take `Cc1ccc(/C=C/S(=O)(=O)F)cc1`: the figures for the MIC99 (against Staphylococcus aureus [1]; in assay [2]; in assay [3]) were 0.836 µg/mL (≈ 4.18 µM), 44.2 µg/mL (≈ 221 µM) and 40.1 µg/mL (≈ 201 µM), respectively. Besides, the zone of inhibition at 50 µg/mL in the assay on Staphylococcus aureus [4] came out at 10.3 mm; in [12], 6.3 mm. For the same molecule, the zone of inhibition at 0.2 µg/mL in the assay on Staphylococcus aureus [5] came to 4.1 mm. In the assay on Staphylococcus aureus [6], the zone of inhibition at 0.4 µg/mL is 5.2 mm. Besides, in the assay on Staphylococcus aureus [7], the zone of inhibition at 0.8 µg/mL was determined as 7.1 mm. Besides, the zone of inhibition at 20 µg/mL in assay [8] was found to be 6.4 mm. Besides, the OD in the assay on Staphylococcus aureus [13] came to 1.48; with Staphylococcus aureus [15], 0.815. Further, in the assay on Staphylococcus aureus [16], the outcome was Active.

On to `O=C(O)c1cn(C2CC2)c2cc(N3CCNCC3)c(F)cc2c1=O` [CIPROFLOXACIN], for which the outcome in the assay with Staphylococcus aureus [14] was Active. In addition, the OD in the assay with Staphylococcus aureus [15] came out at 0.915.

Take `O=[N+]([O-])c1ccc(/C=C/S(=O)(=O)F)cc1`: the MIC99 in the assay on Staphylococcus aureus [1] stood at 0.823 µg/mL (≈ 3.56 µM); in assay [2], 58.2 µg/mL (≈ 252 µM); in [3] it was 0.833 µg/mL (≈ 3.6 µM). Besides, the zone of inhibition at 50 µg/mL with Staphylococcus aureus [4] is 8.12 mm; in assay [12], 7.3 mm. Besides, the zone of inhibition at 0.2 µg/mL turned out to be 5.1 mm in the assay on Staphylococcus aureus [5] and 4.1 mm in assay [17]. Also, the zone of inhibition at 0.4 µg/mL was determined as 7.2 mm in the assay on Staphylococcus aureus [6] and 5.2 mm in assay [18]. In addition, the zone of inhibition at 0.8 µg/mL in the assay on Staphylococcus aureus [7] was 10.1 mm; in assay [19], 7.4 mm. Besides, the zone of inhibition at 20 µg/mL in [8] was determined as 6.2 mm. In addition, the OD with Staphylococcus aureus [13] turned out to be 1.35. In addition, the outcome in the assay with Staphylococcus aureus [14] was Active.

(Values after ChEMBL document CHEMBL4382233, “Discovery of novel arylethenesulfonyl fluorides as potential candidates against methicillin-resistant of Staphylococcus aureus (MRSA) for overcoming multidrug resistance of bacterial infections” (2019).)
